Laboratory results taken from patent US10081624B2, “Heterocyclic compound” (Takeda Pharmaceutical Company Limited, priority 2014, dated 2018).

Key:
[1] = target: T1, HDAC1 enzyme (Homo sapiens, UniProt Q13547); test: HDAC1 enzyme inhibitory assay (HDAC-Glo I/II Assay kit); assay type: biochemical; settings: 1 μM test compound; read-out: HDAC1 inhibitory rate (%) (1 μM)
T1 construct: prepared by transducing full length HDAC1 and HDAC6 genes into Sf-9 insect cells; GST; purchased SignalChem; host or cells: Sf-9 insect cells
Experimental: HDAC1 enzyme and HDAC6 enzyme each prepared by transducing full length HDAC1 and HDAC6 genes into Sf-9 insect cells and purifying by GST affinity column were purchased from SignalChem. Using these enzymes, HDAC1 and/or HDAC6 enzyme inhibitory activities of the compound of the present invention were evaluated. Enzymes were used after preserved at −70° C. HDAC1 or HDAC6 enzyme inhibitory activity of the compound of the present invention was measured using HDAC-Glo™ I/II Assay kit (Promega) according to the following experimental method. The test compound diluted with assay buffer (24 mM Tris-HCl (pH 7.5), 1 mM MgCl2, 0.35 mM KCl, 135 mM NaCl, 0.6 mM Glutathione, 0.01% Tween-20) was added to a 384-well plate by each 2 μL. Then, HDAC1 or HDAC6 enzyme solution diluted with assay buffer was added thereto by each 4 μL, and the plate was incubated at room temperature for 60 min. After incubated, HDAC substrate-Developer solution prepared according to Promega protocol attached to the assay kit was added to the 384-well plate by each 2 μL, and the enzyme reaction was started. After reacting at room temperature for 20 min, luminescence level was measured using plate reader Envision (PerkinElmer). The inhibitory activity of each compound was calculated as a relative activity value when luminescence level in wells without enzyme is considered as 100% inhibition.

[2] = target: T2, HDAC6 enzyme (Homo sapiens, UniProt Q9UBN7); test: HDAC6 enzyme inhibitory assay (HDAC-Glo I/II Assay kit); assay type: biochemical; settings: 1 μM test compound; read-out: HDAC6 inhibitory rate (%) (1 μM)
T2 construct: prepared by transducing full length HDAC1 and HDAC6 genes into Sf-9 insect cells; GST; purchased SignalChem; host or cells: Sf-9 insect cells
T2 sequence (Q9UBN7 1-1215): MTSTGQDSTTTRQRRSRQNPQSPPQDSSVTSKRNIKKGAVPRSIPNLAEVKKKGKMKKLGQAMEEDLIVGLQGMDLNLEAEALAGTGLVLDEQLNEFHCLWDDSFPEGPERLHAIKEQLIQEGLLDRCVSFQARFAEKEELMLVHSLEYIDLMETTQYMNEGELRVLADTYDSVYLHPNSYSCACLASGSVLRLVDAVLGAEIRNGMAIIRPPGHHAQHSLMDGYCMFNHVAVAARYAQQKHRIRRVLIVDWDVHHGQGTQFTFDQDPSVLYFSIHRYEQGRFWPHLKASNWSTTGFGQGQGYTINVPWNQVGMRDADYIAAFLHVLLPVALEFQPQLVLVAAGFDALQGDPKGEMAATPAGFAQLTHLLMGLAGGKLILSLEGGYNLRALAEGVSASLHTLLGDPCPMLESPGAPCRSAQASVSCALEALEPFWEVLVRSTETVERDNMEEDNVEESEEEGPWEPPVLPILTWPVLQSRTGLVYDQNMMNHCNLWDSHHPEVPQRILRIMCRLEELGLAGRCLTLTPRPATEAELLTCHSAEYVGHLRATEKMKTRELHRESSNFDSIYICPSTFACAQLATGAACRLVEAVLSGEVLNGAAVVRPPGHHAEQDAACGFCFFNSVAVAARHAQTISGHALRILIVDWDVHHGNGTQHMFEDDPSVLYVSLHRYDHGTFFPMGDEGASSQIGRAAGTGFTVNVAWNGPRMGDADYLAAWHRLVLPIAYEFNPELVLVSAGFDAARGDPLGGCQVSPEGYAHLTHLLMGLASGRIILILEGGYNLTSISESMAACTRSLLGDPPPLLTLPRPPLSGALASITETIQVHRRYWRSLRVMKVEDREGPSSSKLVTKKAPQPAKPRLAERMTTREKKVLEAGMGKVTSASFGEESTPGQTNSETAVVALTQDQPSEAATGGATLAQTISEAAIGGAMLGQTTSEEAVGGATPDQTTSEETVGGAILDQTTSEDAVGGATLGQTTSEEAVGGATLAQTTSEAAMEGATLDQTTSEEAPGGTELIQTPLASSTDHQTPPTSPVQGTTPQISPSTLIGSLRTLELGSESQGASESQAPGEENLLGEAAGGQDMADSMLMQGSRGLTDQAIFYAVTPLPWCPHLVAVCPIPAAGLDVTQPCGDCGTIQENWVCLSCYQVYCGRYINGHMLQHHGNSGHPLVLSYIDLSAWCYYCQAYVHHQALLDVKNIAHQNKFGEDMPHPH
Procedure, shortened: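 Luminescent HDAC-Glo I/II read-out after 20 min room-temperature reaction with substrate-developer, following a 60 min room-temperature enzyme–compound preincubation. Enzymes: full-length HDAC1 or HDAC6 from Sf-9 cells, GST-purified; buffer pH 7.5 Tris with NaCl, glutathione, 0.01% Tween-20. No-enzyme wells defined 100% inhibition.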

T1 sequence (Q13547 whole entry): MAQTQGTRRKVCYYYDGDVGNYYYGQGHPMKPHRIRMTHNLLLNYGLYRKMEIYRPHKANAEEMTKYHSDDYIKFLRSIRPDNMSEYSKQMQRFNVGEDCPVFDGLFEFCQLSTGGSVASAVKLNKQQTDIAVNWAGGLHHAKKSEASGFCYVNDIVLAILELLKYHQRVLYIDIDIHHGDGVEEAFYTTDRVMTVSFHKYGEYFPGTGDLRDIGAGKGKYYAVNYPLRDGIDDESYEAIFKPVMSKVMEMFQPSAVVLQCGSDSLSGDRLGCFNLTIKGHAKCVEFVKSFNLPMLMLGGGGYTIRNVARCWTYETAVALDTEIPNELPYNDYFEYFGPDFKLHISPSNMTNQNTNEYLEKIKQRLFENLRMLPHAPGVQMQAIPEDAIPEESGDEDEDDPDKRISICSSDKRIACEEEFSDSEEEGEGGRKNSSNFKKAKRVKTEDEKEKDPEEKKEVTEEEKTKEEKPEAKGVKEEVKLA

Row | Structure (SMILES) | inhibition at 1 µM [1] [%] | inhibition at 1 µM [2] [%]
1 | O=C(NCC1COCCN1C(=O)c1cccc(Cl)c1)c1ccc(-c2noc(C(F)(F)F)n2)cc1 (centres unmarked) [Example 7, N-((4-(3-chlorobenzoyl)morpholin-3-yl)methyl)-4-(5-(trifluoromethyl)-1,2,4-oxadiazol-3-yl)benzamide] | 24 | 101
2 | O=C(NCC1COCCN1C(=O)c1ccc(Cl)cc1)c1ccc(-c2noc(C(F)(F)F)n2)cc1 (centres unmarked) [Example 8] | 33 | 97
3 | Cc1ccccc1C(=O)N1CCOCC1CNC(=O)c1ccc(-c2noc(C(F)(F)F)n2)cc1 (centres unmarked) [Example 9, N-((4-(2-methylbenzoyl)morpholin-3-yl)methyl)-4-(5-(trifluoromethyl)-1,2,4-oxadiazol-3-yl)benzamide] | 21 | 99
4 | Cc1cccc(C(=O)N2CCOCC2CNC(=O)c2ccc(-c3noc(C(F)(F)F)n3)cc2)c1 (centres unmarked) [Example 10, N-((4-(3-methylbenzoyl)morpholin-3-yl)methyl)-4-(5-(trifluoromethyl)-1,2,4-oxadiazol-3-yl)benzamide] | 18 | 104
5 | Cc1ccc(C(=O)N2CCOCC2CNC(=O)c2ccc(-c3noc(C(F)(F)F)n3)cc2)cc1 (centres unmarked) [Example 11, N-((4-(4-methylbenzoyl)morpholin-3-yl)methyl)-4-(5-(trifluoromethyl)-1,2,4-oxadiazol-3-yl)benzamide] | 21 | 99
6 | O=C(NCC1COCCN1C(=O)c1ccccn1)c1ccc(-c2noc(C(F)(F)F)n2)cc1 (centres unmarked) [Example 12, N-((4-(pyridin-2-ylcarbonyl)morpholin-3-yl)methyl)-4-(5-(trifluoromethyl)-1,2,4-oxadiazol-3-yl)benzamide] | 7 | 98
7 | O=C(NCC1COCCN1C(=O)c1cccnc1)c1ccc(-c2noc(C(F)(F)F)n2)cc1 (centres unmarked) [Example 13, N-((4-(pyridin-3-ylcarbonyl)morpholin-3-yl)methyl)-4-(5-(trifluoromethyl)-1,2,4-oxadiazol-3-yl)benzamide] | 13 | 97
8 | O=C(NCC1COCCN1C(=O)c1ccncc1)c1ccc(-c2noc(C(F)(F)F)n2)cc1 (centres unmarked) [Example 14, N-((4-isonicotinoylmorpholin-3-yl)methyl)-4-(5-(trifluoromethyl)-1,2,4-oxadiazol-3-yl)benzamide] | 20 | 98
9 | O=C(NCC1COCCN1C(=O)c1cccs1)c1ccc(-c2noc(C(F)(F)F)n2)cc1 (centres unmarked) [Example 15, N-((4-(2-thienylcarbonyl)morpholin-3-yl)methyl)-4-(5-(trifluoromethyl)-1,2,4-oxadiazol-3-yl)benzamide] | 20 | 98
10 | Cn1nc(C(=O)N2CCOCC2CNC(=O)c2ccc(-c3noc(C(F)(F)F)n3)cc2)c2ccccc21 (centres unmarked) [Example 18, N-((4-((1-methyl-1H-indazol-3-yl)carbonyl)morpholin-3-yl)methyl)-4-(5-(trifluoromethyl)-1,2,4-oxadiazol-3-yl)benzamide] | 9 | 98
11 | O=C(NCC1COCCN1C(=O)c1cc2ccccc2o1)c1ccc(-c2noc(C(F)(F)F)n2)cc1 (centres unmarked) [Example 19, N-((4-(1-benzofuran-2-ylcarbonyl)morpholin-3-yl)methyl)-4-(5-(trifluoromethyl)-1,2,4-oxadiazol-3-yl)benzamide] | 24 | 98
12 | O=C(NCC1COCCN1C(=O)c1ccc2nccn2c1)c1ccc(-c2noc(C(F)(F)F)n2)cc1 (centres unmarked) [Example 20, N-((4-(imidazo[1,2-a]pyridin-6-ylcarbonyl)morpholin-3-yl)methyl)-4-(5-(trifluoromethyl)-1,2,4-oxadiazol-3-yl)benzamide] | 20 | 99
13 | O=C(NCC1COCCN1C(=O)Cc1cccs1)c1ccc(-c2noc(C(F)(F)F)n2)cc1 (centres unmarked) [Example 21, N-((4-(2-thienylacetyl)morpholin-3-yl)methyl)-4-(5-(trifluoromethyl)-1,2,4-oxadiazol-3-yl)benzamide] | 28 | 97
14 | O=C(NCC1COCCN1C(=O)CCc1ccccc1)c1ccc(-c2noc(C(F)(F)F)n2)cc1 (centres unmarked) [Example 22, N-((4-(3-phenylpropanoyl)morpholin-3-yl)methyl)-4-(5-(trifluoromethyl)-1,2,4-oxadiazol-3-yl)benzamide] | 23 | 100
15 | O=C(NCC1COCCN1C(=O)c1ccc(-c2ccccc2)cc1)c1ccc(-c2noc(C(F)(F)F)n2)cc1 (centres unmarked) [Example 23, N-((4-(biphenyl-4-ylcarbonyl)morpholin-3-yl)methyl)-4-(5-(trifluoromethyl)-1,2,4-oxadiazol-3-yl)benzamide] | 36 | 95
16 | O=C(NCC1COCCN1C(=O)C1CC1)c1ccc(-c2noc(C(F)(F)F)n2)cc1 (centres unmarked) [Example 24, N-((4-(cyclopropylcarbonyl)morpholin-3-yl)methyl)-4-(5-(trifluoromethyl)-1,2,4-oxadiazol-3-yl)benzamide] | 8 | 93
17 | O=C(NCC1COCCN1C(=O)C1CCCCC1)c1ccc(-c2noc(C(F)(F)F)n2)cc1 (centres unmarked) [Example 25, N-((4-(cyclohexylcarbonyl)morpholin-3-yl)methyl)-4-(5-(trifluoromethyl)-1,2,4-oxadiazol-3-yl)benzamide] | 20 | 102
18 | O=C(NCC1COCCN1C(=O)C1CCOCC1)c1ccc(-c2noc(C(F)(F)F)n2)cc1 (centres unmarked) [Example 26, N-((4-(tetrahydro-2H-pyran-4-ylcarbonyl)morpholin-3-yl)methyl)-4-(5-(trifluoromethyl)-1,2,4-oxadiazol-3-yl)benzamide] | 10 | 95
19 | O=C(NCC1COCCN1C(=O)c1cccc(C(F)(F)F)c1)c1ccc(-c2noc(C(F)(F)F)n2)cc1 (centres unmarked) [Example 27, N-((4-(3-(trifluoromethyl)benzoyl)morpholin-3-yl)methyl)-4-(5-(trifluoromethyl)-1,2,4-oxadiazol-3-yl)benzamide] | 14 | 99
20 | N#Cc1cccc(C(=O)N2CCOCC2CNC(=O)c2ccc(-c3noc(C(F)(F)F)n3)cc2)c1 (centres unmarked) [Example 28, N-((4-(3-cyanobenzoyl)morpholin-3-yl)methyl)-4-(5-(trifluoromethyl)-1,2,4-oxadiazol-3-yl)benzamide] | 14 | 98
21 | COc1cccc(C(=O)N2CCOCC2CNC(=O)c2ccc(-c3noc(C(F)(F)F)n3)cc2)c1 (centres unmarked) [Example 29, N-((4-(3-methoxybenzoyl)morpholin-3-yl)methyl)-4-(5-(trifluoromethyl)-1,2,4-oxadiazol-3-yl)benzamide] | 19 | 99
22 | O=C(NCC1COCCN1C(=O)c1cc(Cl)cc(Cl)c1)c1ccc(-c2noc(C(F)(F)F)n2)cc1 (centres unmarked) [Example 30, N-((4-(3,5-dichlorobenzoyl)morpholin-3-yl)methyl)-4-(5-(trifluoromethyl)-1,2,4-oxadiazol-3-yl)benzamide] | 24 | 98
